From patent publication US5462935A, “Cephalosporin compounds” (Lucky Limited, priority 1990, dated 1995)
Converted amounts (≈) assume the structure as drawn. Read-outs that look alike come from different tables or passages of the source.

Experiments:
[1] = system: Enterobacter cloacae ATCC 27508; assay: minimal inhibitory concentration, two-fold agar dilution; format: cell-based; conditions: ATCC27508, Muller-Hinton agar, 37° C., 20 hours
Protocol: (§1) These NIC values were taken by employing a two-fold dilution method: that is, two-fold serial dilutions of each of the test compounds were made and dispersed in a Muller-Hinton agar medium; 2 μl of the standard test strain which had the 10^7 CFU (Colony Forming Unit) per ml was inoculated on the medium; and these were incubated at 37° C. for 20 hours.

[2] = system: Pseudomonas aerugionsa ATCC 27853; assay: as above; format: cell-based; conditions: ATCC27853, Muller-Hinton agar, 37° C., 20 hours
Protocol: as §1

[3] = system: Shigella flexneri ATCC 11836; assay: as above; format: cell-based; conditions: ATCC11836, Muller-Hinton agar, 37° C., 20 hours
Protocol: as §1

[4] = system: Shigella sonnei ATCC 11060; assay: as above; format: cell-based; conditions: ATCC11060, Muller-Hinton agar, 37° C., 20 hours
Protocol: as §1

[5] = system: Bacillus cereus ATCC 11778; assay: as above; format: cell-based; conditions: Bacillus cereus, ATCC11778, 20 h
Protocol: as §1

[6] = system: Proteus vulgaris ATCC 6059; assay: as above; format: cell-based; conditions: ATCC6059, Muller-Hinton agar, 37° C., 20 hours
Protocol: as §1

[7] = system: Escherichia coli ATCC 25922; assay: as above; format: cell-based; conditions: ATCC25922, Muller-Hinton agar, 37° C., 20 hours
Protocol: as §1

[8] = system: Pseudomonas aerugionsa ATCC 10145; assay: as above; format: cell-based; conditions: ATCC10145, Muller-Hinton agar, 37° C., 20 hours
Protocol: as §1

[9] = system: Proteus mirabilis ATCC 25933; assay: as above; format: cell-based; conditions: ATCC25933, Muller-Hinton agar, 37° C., 20 hours
Protocol: as §1

[10] = system: Micrococcus luteus ATCC 9341; assay: as above; format: cell-based; conditions: ATCC9341, Muller-Hinton agar, 37° C., 20 hours
Protocol: as §1

[11] = system: Salmonella typhimurium ATCC 14028; assay: as above; format: cell-based; conditions: Salmonella enterica, Muller-Hinton agar, 37° C., 20 hours
Protocol: as §1

[12] = system: Streptococcus faecalis ATCC 29212; assay: as above; format: cell-based; conditions: Enterococcus faecalis, ATCC29212, Muller-Hinton agar, 37° C., 20 hours
Protocol: as §1

ATCC 12228 = assay: as above; format: cell-based; conditions: Staphylococcus faecalis, ATCC12228, 20 h
Protocol: as §1

[13] = system: Staphylococcus epidermidis ATCC 10537; assay: as above; format: cell-based; conditions: ATCC10537, Muller-Hinton agar, 37° C., 20 hours
Protocol: as §1

[14] = system: Serratia marcescens ATCC 27117; assay: as above; format: cell-based; conditions: ATCC27117, Muller-Hinton agar, 37° C., 20 hours
Protocol: as §1

[15] = system: Bacillus megaterium ATCC 9885; assay: as above; format: cell-based; conditions: Priestia megaterium, ATCC9885, 20 h
Protocol: as §1

[16] = system: Staphylococcus aureus ATCC 6638p; assay: as above; format: cell-based; conditions: ATCC6638P, 20 h
Protocol: as §1

[17] = system: Enterobacter aerogenes ATCC 29751; assay: as above; format: cell-based; conditions: Klebsiella aerogenes, ATCC29751, 20 h
Protocol: as §1

[18] = system: Escherichia coli ATCC 10536; assay: as above; format: cell-based; conditions: ATCC10536, Muller-Hinton agar, 37° C., 20 hours
Protocol: as §1

[19] = system: Citrobacter freundii ATCC 8090; assay: as above; format: cell-based; conditions: ATCC8090, Muller-Hinton agar, 37° C., 20 hours
Protocol: as §1

[20] = system: Klebsiella pneumoniae ATCC 10031; assay: as above; format: cell-based; conditions: ATCC10031, Muller-Hinton agar, 37° C., 20 hours
Protocol: as §1

[21] = system: Pseudomonas aeruginosa ATCC 25619; assay: as above; format: cell-based; conditions: ATCC25619, Muller-Hinton agar, 37° C., 20 hours
Protocol: as §1

[22] = system: Providencia rettgeri ATCC 9250; assay: as above; format: cell-based; conditions: ATCC9250, Muller-Hinton agar, 37° C., 20 hours
Protocol: as §1

[23] = system: Acinetobacter calcoaceticus ATCC 15473; assay: as above; format: cell-based; conditions: ATCC15473, Muller-Hinton agar, 37° C., 20 hours
Protocol: as §1

[24] = system: Morganella morganii ATCC 8076h; assay: as above; format: cell-based; conditions: ATCC8076H, 20 h
Protocol: as §1

[25] = in vivo absorbency test (plasma concentration, pharmacokinetic parameters); design: species or system SD rats (male); conditions: rat, iv, 20 mg/kg, rats; for half-life / concentration at 1 min / concentration at 2.5 min / concentration at 5 min / concentration at 10 min / concentration at 20 min / concentration at 40 min / concentration at 1 h / concentration at 2 h / concentration at 3 h / AUC: plasma; for half-life / AUC: Two-Compartment Model; for concentration at 1 min / concentration at 2.5 min / concentration at 5 min / concentration at 10 min / concentration at 20 min / concentration at 40 min / concentration at 1 h / concentration at 2 h / concentration at 3 h: read-out: Plasma Conc.; for concentration at 1 h: 60 min; for concentration at 2 h: 120 min; for concentration at 3 h: 180 min; for AUC: read-out: ACU (converted); for dose excreted: urine, read-out: Urinary recovery
Protocol: In addition to the in vitro tests described above, in vivo absorbency tests for the two selected compounds of formulas (I-S-1) and (I-R-1), along with Ceftadizime, were carried out by administering intravenously, in a dose of 20 mg/kg, each of these two compounds into SD rats (male) weighing 220 to 340 g; […], which were analyzed by employing the bio-assay or agar well method. About 10 to 15 rats were used for each of the compounds.
Notes: (1) Two-Compartment Model
(3) Tested Animal: Rats(male; 220-340 g)

[26] = acute toxicity test, intravenous; conditions: mouse, in vivo, ICR mice, observed for 14 days
From the text: The results are shown in the last row of Table 2.

Row | Structure (SMILES) | MIC [1] | MIC [2] | MIC [3] | MIC [4] | MIC [5] | MIC [6] | MIC [7] | MIC [8] | MIC [9] | MIC [10] | MIC [11] | MIC [12] | MIC (ATCC 12228) | MIC [13] | MIC [14] | MIC [15] | MIC [16] | MIC [17] | MIC [18] | MIC [19] | also measured
1 | C[C@H](O/N=C(\C(=O)NC1C(=O)N2C(C(=O)[O-])=C(CSc3nc(N)cc(N)[n+]3N)CS[C@H]12)c1csc(N)n1)C(=O)O (stereo partly drawn) [I-S-1, 7-[(Z)-2-(2-aminothiazol-4-yl)-2-[(S)-1-carboxyeth-1-oxyimino]acetamido]-3-[(1,4,6-triaminopyrimidinium-2-yl)thiomethyl]-3-cephem-4-carboxylate] | 0.016 µg/mL (≈ 0.0262 µM) | 0.5 µg/mL (≈ 0.819 µM) | 0.016 µg/mL (≈ 0.0262 µM) | 0.031 µg/mL (≈ 0.0508 µM) | 32 µg/mL (≈ 52.4 µM) | 0.016 µg/mL (≈ 0.0262 µM) | 0.031 µg/mL (≈ 0.0508 µM) | 1 µg/mL (≈ 1.64 µM) | 0.016 µg/mL (≈ 0.0262 µM) | 0.25 µg/mL (≈ 0.409 µM) | 0.063 µg/mL (≈ 0.103 µM) | > 128 µg/mL | 2 µg/mL (≈ 3.28 µM) | 2 µg/mL (≈ 3.28 µM) | 0.031 µg/mL (≈ 0.0508 µM) | 0.13 µg/mL (≈ 0.213 µM) | 4 µg/mL (≈ 6.55 µM) | 0.5 µg/mL (≈ 0.819 µM) | 0.031 µg/mL (≈ 0.0508 µM) | 0.031 µg/mL (≈ 0.0508 µM) | MIC [20]: 0.031 µg/mL (≈ 0.0508 µM); MIC [21]: 0.5 µg/mL (≈ 0.819 µM); MIC [22]: ≤ 0.008 µg/mL; MIC [23]: 2 µg/mL (≈ 3.28 µM); MIC [24]: ≤ 0.008 µg/mL; half-life ([25]; read-out: T1/1(β)): 37.5 min; half-life ([25]; read-out: T1/2(α)): 7.6 min; concentration at 1 min [25]: 147000 ng/mL; concentration at 2.5 min [25]: 102000 ng/mL; concentration at 5 min [25]: 72600 ng/mL; concentration at 10 min [25]: 57300 ng/mL; concentration at 20 min [25]: 37000 ng/mL; concentration at 40 min [25]: 19600 ng/mL; concentration at 1 h [25]: 11200 ng/mL; concentration at 2 h [25]: 3100 ng/mL; concentration at 3 h [25]: 1500 ng/mL; AUC [25]: 47700 ng·h/mL; dose excreted [25]: 93%; LD50 at 336 h [26]: > 5000 mg/kg
2 | C[C@@H](O/N=C(\C(=O)NC1C(=O)N2C(C(=O)[O-])=C(CSc3nc(N)cc(N)[n+]3N)CS[C@H]12)c1csc(N)n1)C(=O)O (stereo partly drawn) [I-R-1, 7-[(Z)-2-(2-aminothiazol-4-yl)-2-[(R)-1-carboxyeth-1-oxyimino]acetamido]-3-[(1,4,6-triaminopyrimidinium-2-yl)thiomethyl]-3-cephem-4-carboxylate] | 0.016 µg/mL (≈ 0.0262 µM) | 1 µg/mL (≈ 1.64 µM) | ≤ 0.008 µg/mL | 0.016 µg/mL (≈ 0.0262 µM) | 128 µg/mL (≈ 210 µM) | 0.031 µg/mL (≈ 0.0508 µM) | 0.031 µg/mL (≈ 0.0508 µM) | 2 µg/mL (≈ 3.28 µM) | 0.031 µg/mL (≈ 0.0508 µM) | 1 µg/mL (≈ 1.64 µM) | 0.063 µg/mL (≈ 0.103 µM) | > 128 µg/mL | 2 µg/mL (≈ 3.28 µM) | 4 µg/mL (≈ 6.55 µM) | 0.031 µg/mL (≈ 0.0508 µM) | 0.5 µg/mL (≈ 0.819 µM) | 8 µg/mL (≈ 13.1 µM) | 0.5 µg/mL (≈ 0.819 µM) | 0.031 µg/mL (≈ 0.0508 µM) | 0.031 µg/mL (≈ 0.0508 µM) | MIC [20]: 0.031 µg/mL (≈ 0.0508 µM); MIC [21]: 0.5 µg/mL (≈ 0.819 µM); MIC [22]: ≤ 0.008 µg/mL; MIC [23]: 2 µg/mL (≈ 3.28 µM); MIC [24]: ≤ 0.008 µg/mL; half-life ([25]; read-out: T1/1(β)): 30 min; half-life ([25]; read-out: T1/2(α)): 4.7 min; concentration at 1 min [25]: 170000 ng/mL; concentration at 2.5 min [25]: 102000 ng/mL; concentration at 5 min [25]: 76900 ng/mL; concentration at 10 min [25]: 57000 ng/mL; concentration at 20 min [25]: 39100 ng/mL; concentration at 40 min [25]: 17700 ng/mL; concentration at 1 h [25]: 10100 ng/mL; concentration at 2 h [25]: 2500 ng/mL; concentration at 3 h [25]: 700 ng/mL; AUC [25]: 45800 ng·h/mL; dose excreted [25]: 91%; LD50 at 336 h [26]: > 5000 mg/kg
